Results taken from patent US12371421B2, “Solid forms of a PARP7 inhibitor” (Ribon Therapeutics, Inc., priority 2019, dated 2025).
In brackets after ≈: the same amount, converted by molar mass.

Assay: Approximate solubility of Form A in solvents at room temperature
Format: physicochemical
Description: The approximate solubility of Form A was estimated in 27 solvents or co-solvents at room temperature. Approximately 2 mg of solids were weighed into each 3 mL glass vial, to which each of the solvents was added in stepwise until the solids dissolved completely or the total volume reaches 2.0 mL. Solubility ranges were used to guide the solvent selection for polymorph screening described in later examples.

Q: With `C[C@@H](COCCC(=O)N1CCN(c2ncc(C(F)(F)F)cn2)CC1)Nc1cn[nH]c(=O)c1C(F)(F)F` [Form A, 5-[[(2S)-1-(3-oxo-3-[4-[5-(trifluoromethyl)pyrimidin-2-yl]piperazin-1-yl]propoxy)propan-2-yl]amino]-4-(trifluoromethyl)-2,3-dihydropyridazin-3-one] as the molecule, how does the solubility (organic solvent or mixture, thermodynamic from solid, 1,4-Dioxane) read?
A: Its solubility is 5 to 10 mg/mL (≈ 9.55 to 19.1 mM).

Q: And the solubility (organic solvent or mixture, thermodynamic from solid, 2-MeTHF)?
A: The solubility was less than 1 mg/mL.

Q: What about the solubility (organic solvent or mixture, thermodynamic from solid, ACN) of the same molecule?
A: Its solubility is 11 to 22 mg/mL (≈ 21 to 42 mM).

Q: And the solubility (organic solvent or mixture, thermodynamic from solid, ACN/MIBK (1:9) v:v)?
A: The solubility was 2 to 5 mg/mL (≈ 3.82 to 9.55 mM).

Q: What about the solubility (organic solvent or mixture, thermodynamic from solid, ACN/MTBE (1:9) v:v) of the same molecule?
A: Its solubility is 1.2 to 2.4 mg/mL (≈ 2.29 to 4.59 mM).

Q: What about the solubility (organic solvent or mixture, thermodynamic from solid, ACN/THF (1:4) v:v) of the same molecule?
A: Its solubility is 5 to 10 mg/mL (≈ 9.55 to 19.1 mM).

Q: What about the solubility (organic solvent or mixture, thermodynamic from solid, ACN/THF (1:9) v:v) of the same molecule?
A: The solubility was 10 to 20 mg/mL (≈ 19.1 to 38.2 mM).

Q: And the solubility (organic solvent or mixture, thermodynamic from solid, Acetone)?
A: Its solubility is greater than 40 mg/mL.

Q: And the solubility (organic solvent or mixture, thermodynamic from solid, Acetone/n-Heptane (1:4) v:v)?
A: Its solubility is less than 1.3 mg/mL.

Q: And the solubility (organic solvent or mixture, thermodynamic from solid, Acetone/n-Heptane (1:9) v:v)?
A: Its solubility is less than 1 mg/mL.

Q: What about the solubility (organic solvent or mixture, thermodynamic from solid, CHCl3) of the same molecule?
A: Its solubility is 22 to 44 mg/mL (≈ 42 to 84.1 mM).

Q: And the solubility (organic solvent or mixture, thermodynamic from solid, DCM)?
A: The solubility was 19 to 38 mg/mL (≈ 36.3 to 72.6 mM).

Q: And the solubility (organic solvent or mixture, thermodynamic from solid, DCM/MTBE (1:9) v:v)?
A: The solubility was less than 1.2 mg/mL.

Q: And the solubility (organic solvent or mixture, thermodynamic from solid, DMAc)?
A: The solubility was 22 to 44 mg/mL (≈ 42 to 84.1 mM).

Q: And the solubility (organic solvent or mixture, thermodynamic from solid, DMSO)?
A: The solubility was greater than 42 mg/mL.

Q: And the solubility (organic solvent or mixture, thermodynamic from solid, EtOAc)?
A: Its solubility is 1.9 to 4.8 mg/mL (≈ 3.63 to 9.17 mM).

Q: What about the solubility (organic solvent or mixture, thermodynamic from solid, EtOH) of the same molecule?
A: The solubility was less than 1.1 mg/mL.

Q: What about the solubility (organic solvent or mixture, thermodynamic from solid, IPA) of the same molecule?
A: The solubility was less than 1.1 mg/mL.

Q: And the solubility (organic solvent or mixture, thermodynamic from solid, IPAc)?
A: Its solubility is less than 1.1 mg/mL.

Q: What about the solubility (organic solvent or mixture, thermodynamic from solid, MIBK) of the same molecule?
A: Its solubility is less than 1 mg/mL.

Q: And the solubility (organic solvent or mixture, thermodynamic from solid, MTBE)?
A: The solubility was less than 1 mg/mL.

Q: And the solubility (organic solvent or mixture, thermodynamic from solid, MeOH)?
A: Its solubility is less than 1.1 mg/mL.

Q: What about the solubility (organic solvent or mixture, thermodynamic from solid, NMP) of the same molecule?
A: The solubility was greater than 38 mg/mL.

Q: What about the solubility (organic solvent or mixture, thermodynamic from solid, THF) of the same molecule?
A: The solubility was less than 1.1 mg/mL.

Q: What about the solubility (organic solvent or mixture, thermodynamic from solid, Toluene) of the same molecule?
A: Its solubility is less than 1 mg/mL.

Q: And the solubility (organic solvent or mixture, thermodynamic from solid, n-Heptane)?
A: Its solubility is less than 1 mg/mL.

Q: And the solubility (water, thermodynamic from solid, H2O)?
A: Its solubility is less than 1.1 mg/mL.
